Experimental data: ChEMBL document CHEMBL1145032, “Effects of heterocyclic aromatic substituents on binding affinities at two distinct sites of somatostatin receptors. Correlation with the electrostatic potential of the substituents” (J Med Chem, 2003)

What was measured:
Substance-P receptor = Substance-P receptor (Homo sapiens, UniProt P25103); experiment: Binding affinity against Tachykinin receptor 1
[1] = pKa was determined; assay type: physicochemical
[2] = target: T1, Somatostatin receptor type 4 (Homo sapiens, UniProt P31391); experiment: Tested for binding affinity at human Somatostatin receptor type 4 using ([3-125I-Tyr11)]-SRIF-14 as the radioligand
[3] = pKHB (hydrogen bond basicity of the heterocycle) was determined
[4] = target: T1, Somatostatin receptor type 4; experiment: Inhibitory concentration required against human Somatostatin receptor type 4
[5] = target: Somatostatin receptor type 2 (Homo sapiens, UniProt P30874); experiment: Inhibitory concentration required against human Somatostatin receptor type 2
Chain of Somatostatin receptor type 2 (P30874 whole entry): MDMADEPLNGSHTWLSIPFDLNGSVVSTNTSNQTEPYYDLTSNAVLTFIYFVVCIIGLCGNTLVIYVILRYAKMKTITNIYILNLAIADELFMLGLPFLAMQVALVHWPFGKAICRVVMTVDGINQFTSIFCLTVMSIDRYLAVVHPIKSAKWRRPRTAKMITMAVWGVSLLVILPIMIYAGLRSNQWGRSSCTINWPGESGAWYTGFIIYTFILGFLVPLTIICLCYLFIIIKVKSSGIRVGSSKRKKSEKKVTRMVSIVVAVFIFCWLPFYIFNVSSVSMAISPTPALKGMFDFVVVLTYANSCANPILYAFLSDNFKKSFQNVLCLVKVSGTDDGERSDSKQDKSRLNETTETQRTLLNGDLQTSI

T1 sequence (P31391 whole entry): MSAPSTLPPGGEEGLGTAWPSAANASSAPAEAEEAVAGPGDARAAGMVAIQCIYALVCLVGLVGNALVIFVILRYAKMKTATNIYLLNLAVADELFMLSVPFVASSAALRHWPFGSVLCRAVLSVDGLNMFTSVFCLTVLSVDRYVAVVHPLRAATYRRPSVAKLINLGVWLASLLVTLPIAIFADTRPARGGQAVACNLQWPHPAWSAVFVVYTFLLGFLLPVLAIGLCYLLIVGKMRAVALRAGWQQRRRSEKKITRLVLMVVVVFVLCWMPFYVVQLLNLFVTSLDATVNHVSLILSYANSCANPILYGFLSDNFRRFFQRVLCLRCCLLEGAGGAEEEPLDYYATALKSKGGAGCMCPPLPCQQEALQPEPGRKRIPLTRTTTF
Chain of Substance-P receptor (P25103 whole entry): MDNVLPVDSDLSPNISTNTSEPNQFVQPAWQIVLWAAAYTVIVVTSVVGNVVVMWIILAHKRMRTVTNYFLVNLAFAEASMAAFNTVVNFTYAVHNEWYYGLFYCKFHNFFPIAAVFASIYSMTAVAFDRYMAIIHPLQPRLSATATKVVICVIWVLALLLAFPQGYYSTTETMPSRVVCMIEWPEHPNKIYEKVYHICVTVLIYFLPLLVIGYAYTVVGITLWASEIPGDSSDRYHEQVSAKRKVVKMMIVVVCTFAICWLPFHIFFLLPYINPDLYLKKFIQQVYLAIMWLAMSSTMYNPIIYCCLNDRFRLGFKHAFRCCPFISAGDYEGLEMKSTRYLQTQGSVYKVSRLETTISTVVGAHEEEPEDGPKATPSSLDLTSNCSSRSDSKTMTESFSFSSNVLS

Row | Structure (SMILES) | Ki (Substance-P receptor) [nM] | pKa [1] | Ki [2] [nM] | pKHB [3] | IC50 [4] [nM] | IC50 [5] [nM]
1 | NCCCCCOC[C@H]1O[C@@H](OCCc2c[nH]c3ccccc23)[C@H](OCc2ccccc2)[C@@H](OCc2ccccc2)[C@@H]1OCc1cccnc1 | – | 5.2 | 360 | 1.86 | – | –
2 | NCCCCCOC[C@H]1O[C@@H](OCCc2c[nH]c3ccccc23)[C@H](OCc2ccccc2)[C@@H](OCc2ccccc2)[C@@H]1OCc1c[nH]cn1 | – | 7.2 | 1040 | 2.03 | – | –
3 | NCCCCCOC[C@@H]1O[C@H](OCCc2c[nH]c3ccccc23)[C@H](OCc2cnc[nH]2)C(OCc2ccccc2)[C@H]1OCc1ccccc1 (single isomer, unassigned; (+)) | – | – | 100 | – | 100 | 800
4 | NCCCCCOC[C@H]1O[C@@H](OCCc2c[nH]c3ccccc23)[C@H](OCc2cnc[nH]2)[C@@H](OCc2ccccc2)[C@@H]1OCc1cccnc1 | – | – | 53 | – | 53 | 2250
5 | NCCCCCOC[C@H]1O[C@@H](OCCc2c[nH]c3ccccc23)[C@H](OCc2ccccc2)[C@@H](OCc2ccccc2)[C@@H]1OCc1ccc(F)nc1 | – | -0.4 | 680 | 0.95 | – | –
6 | NCCCCCOC[C@H]1O[C@@H](OCCc2c[nH]c3ccccc23)[C@H](OCc2ccccc2)[C@@H](OCc2ccccc2)[C@@H]1OCc1ccc(Cl)nc1 | – | 0.5 | 1200 | – | – | –
7 | NCCCCCOC[C@H]1O[C@@H](OCCc2c[nH]c3ccccc23)[C@H](OCc2ccccc2)[C@@H](OCc2ccccc2)[C@@H]1OCc1ccccc1 | 150 | – | 1650 | – | – | –

The next lines start with the values.

Row | Ki (Substance-P receptor) [nM] | pKa [1] | Ki [2] [nM] | pKHB [3] | IC50 [4] [nM] | IC50 [5] [nM] | Structure (SMILES)
8 | 27 | – | – | – | – | – | CC(=O)NCCCCCOC[C@H]1O[C@@H](OCCc2c[nH]c3ccccc23)[C@H](OCc2ccccc2)[C@@H](OCc2ccccc2)[C@@H]1O
9 | – | 5.2 | 890 | 1.86 | – | – | NCCCCCOC[C@H]1O[C@@H](OCCc2c[nH]c3ccccc23)[C@H](OCc2ccccc2)[C@@H](OCc2ccccc2)[C@@H]1OCc1ccccn1
10 | – | 6.1 | 1260 | 1.05 | – | – | Cc1ccc(CO[C@H]2[C@H](OCc3ccccc3)[C@@H](OCc3ccccc3)[C@H](OCCc3c[nH]c4ccccc34)O[C@@H]2COCCCCCN)cn1
11 | – | 5.2 | 570 | 1.86 | – | – | NCCCCCOC[C@H]1O[C@@H](OCCc2c[nH]c3ccccc23)[C@H](OCc2ccccc2)[C@@H](OCc2ccccc2)[C@@H]1OCc1ccncc1
12 | – | – | – | – | 800 | – | NCCCCCOC[C@@H]1O[C@H](OCCc2c[nH]c3ccccc23)[C@H](OCc2cnc[nH]2)C(OCc2ccccc2)[C@H]1OCCc1cccnc1 (single isomer, unassigned; (+))
13 | – | 0.7 | 260 | 1.95 | – | – | NCCCCCOC[C@H]1O[C@@H](OCCc2c[nH]c3ccccc23)[C@H](OCc2ccccc2)[C@@H](OCc2ccccc2)[C@@H]1OCc1cnccn1
